The test system of experiment [1] is wild-type TynA with M83Y FeaR. As to the kind of experiment: PtynA-GFP reporter, wild-type TynA with M83Y FeaR (pCX068). In kind it is cell-based, E. coli MG1655. As to conditions: pCX008, pCX068, FIG. 6D, 24 h. The method, then: (§1) Flow cytometry was performed as previously described. […] Cytometry data was gated by forward and side scatter.
Experiment [2] has as its system wild-type TynA with M83Q FeaR. In kind it is cell-based, E. coli MG1655. As to conditions: M83Q FeaR; 24 h; FIG. 28A. How it is done: as §1
Experiment [3] has as its system wild-type TynA with W110S FeaR. The format is cell-based, E. coli MG1655. As to conditions: W110S FeaR; 24 h; FIG. 28C. The method, then:
as §1

The subject of experiment [4] is wild-type TynA with L108T FeaR. In kind it is cell-based, E. coli MG1655. The note with it: L108T FeaR; 24 h; FIG. 28B. How it is done:
as §1

Experiment [5] relates to wild-type TynA with W110C FeaR. The format is cell-based, E. coli MG1655. As to conditions: W110C FeaR; 24 h; FIG. 28D. How it is done:
as §1

The target of another experiment is T1, WT TrpR (Escherichia coli, UniProt P0A881).
T1 construct: trpR (WT); expressed in transfected cells; host or cells: E. coli Nissle 1917 (EcN), genomic trpR knocked out; plasmid pMBA035 (P17-trpR)
Description: WT TrpR system, repression of GFP expression. The format is cell-based, E. coli. An excerpt:
Among the various aspects of the present disclosure is the provision of systems and methods for detecting aromatic compounds. An aspect of the present disclosure provides for a method of protein engineering (e.g., a regulator protein) comprising: mutagenizing specific amino acids in and around a ligand-binding site of a protein, wherein the mutagenizing enables changes in ligand-protein binding specificity while maintaining protein-DNA interaction and thus downstream gene expression control; and/or linking ligand-protein binding to output response. An aspect of the present disclosure provides for an engineered molecular sensor. […] In some embodiments, the engineered regulator protein or the ligand-protein binding site or a sequence encoding the engineered regulator protein or the ligand-protein binding site of the engineered regulator protein is at least about 80% identical to a WT regulator protein or a WT regulator ligand-protein binding site; or a sequence encoding the engineered regulator protein or ligand binding site thereof is at least about 80% identical to a sequence encoding the WT regulator protein or the WT regulator ligand-protein binding site; or functional fragment thereof, the engineered regulator protein having ligand binding activity. In some embodiments, the engineered molecular sensor is optionally genomically integrated into a microorganism, optionally selected from a probiotic or is a purified cell-free sensor. In some embodiments, the engineered regulator protein or enzyme is an engineered TrpR, TyrR, TynA, or FeaR protein. […] In some embodiments, the engineered regulator protein is an engineered TrpR and is a tryptophan (Trp)-, 5-hydroxytryptophan (5-HTP)-, or tryptamine (Trpta)-specific sensor. In some embodiments, the engineered regulator protein or enzyme is an engineered TrpR, TyrR, TynA, or FeaR, and/or wherein the engineered TrpR, TyrR, TynA, or FeaR comprises at least one mutation to a ligand-protein binding site having specific amino acid binding activity. […]

Experiment [6] deals with sensor systems containing FeaR-KA. Description: GFP fluorescence from PtynA in part-swapped sensor systems containing FeaR-KA. The format is cell-based, Klebsiella aerogenes. As to conditions: 0.5 mM, 24 h, FIG. 31. An excerpt:
FIG. 31. […] PtynA from MG or KP/KA was regulated by TynA from MG or KP and FeaR from MG or KA. […] Values and error bars are the average and standard deviation of biological triplicate, respectively.
Tryptamine specific biosensors were first designed by genetic parts swapping. Three types of tynA and feaR genes from E. coli K-12 MG1655 (MG), Klebsiella aerogenes (KA), and Klebsiella pneumoniae (KP), and two types of PtynA sequences were chosen and tested in 18 different combinations (see e.g., FIG. 30). PtynA-KP/KA was constructed by replacing the FeaR binding sites of PtynA-MG with those from Klebsiella species.
Moreover, a Tryptamine specific variant I109N was discovered using a sensor system with PtynA-MG, TynA-KP and FeaR-KA as the wild type (VVT) for further directed evolution (see e.g., FIG. 32). […] Transfer curves for the tryptamine-specific FeaR-KA I109N sensor after 5 or 24 hours of induction further illustrate the specificity of the sensor for tryptamine (see e.g., FIG. 33A-FIG. 33B).

The source of these data is patent US20220372585A1, “Sensors for Aromatic Compounds and Methods of Making and Using Same” (Washington University, priority 2021, published 2022).

Regarding `NCCc1ccccc1` [Phenylethylamine, phenylethylamine], in experiment [1], the Fmax came to 1004, the Fmin is 5.8 and the “n (Hill coefficient)” value is given as 2.1.
For `NCCc1c[nH]c2ccccc12` [Tryptamine, tryptamine], the response entry in experiment [2], in experiment [3], in experiment [4] and in experiment [5] was “lack of response” in each case. Moreover, on WT TrpR, the “fold repression of GFP expression” value was 7 fold. Besides, the fluorescence intensity entry in experiment [6] is “significant enhancement of fluorescence intensity”.
